“Also recorded” adds a separate entry of the source.
Legend:
myocardial infarct = assay: Rodent model of acute myocardial infarct (LAD occlusion/reperfusion); assay type: in vivo, Sprague-Dawley rats
Experimental: A rodent model of acute myocardial infarct, in which the proximal left anterior descending coronary artery (LAD) is occluded for 60 min followed by reperfusion, was used to determine whether test agents reduced infarct size at 24 hours.
Myocardial infarcts were created in Sprague-Dawley rats (200-300 g body weight) by a 60 min occlusion of the LAD followed by LAD reperfusion. […] At 24 hr post-treatment, the ischemic zone (area at-risk, AAR) was delineated by re-ligation of the LAD followed by IV injection of alkali blue dye, after which hearts were sectioned along the short axis and stained using triphenyltetrazolium chloride to delineate viable from infarcted myocardium. Photographic images were then analyzed using morphometric software to calculate infarct area as a percent of the at-risk area.
Rodent MI model: All animal studies followed current “NIH Guidelines for the Use of Laboratory Animals” and were performed according to IACUC-approved protocols. Sprague-Dawley rats (275-300 g) were anesthetized using inhaled isoflurane after which chest walls were shaved and swabbed with iodine. Animals were then intubated and maintained on 2% isoflurane (delivered in 30% O2/70% N2), with optimal respiratory rate and stroke volumes set by a volume-controlled safety ventilator (Inspira Advanced Safety Ventilator; Harvard Apparatus, Holliston, Mass.). Body temperatures were maintained at 35-37° C. using heating pads and five-lead electrocardiograms established. For each animal, a left thoracotomy was performed at the third intercostal space, the heart was exposed and a suture snare tightened around the LAD at the point it appeared from beneath the left atrium. Ischemia was confirmed from blanching of the left ventricle (LV) as well as changes in ECG patterns. After the desired period of occlusion (60 min in the standard model), the suture snare was loosened to allow complete reperfusion (but retained in place using shallow sutures) and the chest closed in layers. […].
For infarct size determination, LAD occlusion was repeated on each animal 24 hr after the initial occlusion. The ischemic zone (area-at-risk or AAR) was then delineated by i.v. injection of Evans blue dye (5 ml of a 10% saline solution containing 100 U/ml sodium heparin). The heart was explanted, atria and right ventricle trimmed free, and the LV (septal and free walls) frozen at −20° C. to induce rigor. After thawing on ice, the LV was subdivided into six 2 mm thick sections along the short axis using a metal form to guide dissection. Heart sections were stained for 20 min in 37° C. triphenyltetrazolium chloride (TTC, 2% in 0.04 M K2HPO4/0.17 M sucrose) to delineate viable from infarcted myocardium, fixed for 20 min in 10% formalin, then rinsed in saline. For each section, photographs were taken of both anterior and posterior surfaces and these images analyzed (by personnel blinded as to treatment identity) using a morphometric software package (Image Pro Plus; Media Cybernetics, Silver Spring, Md.). The following areas were calculated, based on their differing pixel densities: non-ischemic zone (Evans blue-stained), viable-but-ischemic zone (free of Evans blue but TTC-stained), and infarct-within-ischemic zone (free of both Evans blue and TTC stain). Area values for anterior and posterior views were averaged, and these values used to calculate the following AAR=Viable-but-ischemic Area+Infarct Area Equation 1 Total LV Area=AAR+Non-ischemic Area Equation 2

EphB2 = molecular target: T1, EphB2 (Homo sapiens, UniProt P29323); assay: Kinase panel screen; assay type: biochemical; settings: Compound I and ATP 10 μM
T1 construct: purchased Upstate USA or Invitrogen (commercial screening service)

CaMKII = assay: Kinase panel screen; assay type: biochemical, rat; settings: Compound I and ATP 10 μM
INK3 = INK3 (Rattus norvegicus, UniProt P49187); assay: Kinase panel screen; assay type: biochemical; settings: Compound I and ATP 10 μM
Ron = molecular target: T2, Ron (Homo sapiens, UniProt Q04912); assay: Kinase panel screen; assay type: biochemical; settings: Compound I and ATP 10 μM
T2 construct: purchased Upstate USA or Invitrogen (commercial screening service)

GSK3a = molecular target: T3, GSK3a (Homo sapiens, UniProt P49840); assay: Kinase panel screen; assay type: biochemical; settings: Compound I and ATP 10 μM
T3 construct: purchased Upstate USA or Invitrogen (commercial screening service)

ErbB4 = molecular target: T4, ErbB4 (Homo sapiens, UniProt Q15303); assay: Kinase panel screen; assay type: biochemical; settings: Compound I and ATP 10 μM
T4 construct: purchased Upstate USA or Invitrogen (commercial screening service)

[1] = system: PAF-induced inflammatory edema; assay: Rat hindpaw inflammation model, PAF; assay type: in vivo, Sprague Dawley rats
Experimental: FIG. 4. Inhibition of edema and inflammation. (a, b) Rats were injected i.v. with Evans blue dye and then intradermally with saline, VEGF or histamine. […] (c-f) Rat hindpaws were injected with either PAF (c & d) or dextran (e & f), and three hours later processed as H&E-stained paraffin sections. […] Images were taken of paws representing the mean group value for volume as presented in Results (original magnification 200×).
The Miles assay models a primarily endothelial-based response that develops rapidly (within minutes). As a comparator, we next employed a rodent hindpaw model where more complex inflammatory reactions develop over several hours. Agonists included PAF, a GPCR ligand that activates both EC and leukocytes, and dextran, a phagocytic stimulus for mast cell and leukocyte activation. […] Paw volume (a more quantitative measure of edema and inflammation) was reduced by 62% and 78% in response to PAF or dextran, respectively (n=8, P<0.001). Finally, to correlate these in vivo responses with the molecular target of interest, we monitored PI3K pathway signaling through Western blot analyses of Akt phosphorylation (a PI3K-mediated event).
In order to determine the influence of compounds on the development of inflammation, Sprague Dawley rats were first injected intravenously with either vehicle or test compound at 5 mg/kg, and then 30 min later either PBS (as a control), dextran or platelet activating factor (PAF) was injected into the plantar surface of the hindlimbs, dextran and PAF being known to induce localized inflammatory responses marked by edema. Three hours later, paw dimensions were measured using a caliper and paw volumes calculated; data are shown as the increase in paw volume (mm^3) as compared to controls (paws injected with PBS).

MKK4 = MKK4 (Mus musculus, UniProt P47809); assay: Kinase panel screen; assay type: biochemical; settings: Compound I and ATP 10 μM
PKCa = molecular target: T5, PKCa (Homo sapiens, UniProt P17252); assay: Kinase panel screen; assay type: biochemical; settings: Compound I and ATP 10 μM
T5 construct: purchased Upstate USA or Invitrogen (contract screening service)

CDK3 = molecular target: T6, CDK3 (Homo sapiens, UniProt Q00526); assay: Kinase panel screen; assay type: biochemical; settings: Compound I and ATP 10 μM
T6 construct: purchased Upstate USA or Invitrogen (commercial screening service)

PDK1 = molecular target: T7, PDK1 (Homo sapiens, UniProt O15530); assay: Kinase panel screen; assay type: biochemical; settings: Compound I and ATP 10 μM
T7 construct: purchased Upstate USA or Invitrogen (commercial screening service)

Pyk2 = molecular target: T8, Pyk2 (Homo sapiens, UniProt Q14289); assay: Kinase panel screen; assay type: biochemical; settings: Compound I and ATP 10 μM
T8 construct: purchased Upstate USA or Invitrogen (contract screening service)

SAPK2a = molecular target: T9, SAPK2a (Homo sapiens, UniProt Q16539); assay: Kinase panel screen; assay type: biochemical; settings: Compound I and ATP 10 μM
T9 construct: purchased Upstate USA or Invitrogen (commercial screening service)
T9 sequence (Q16539 whole entry): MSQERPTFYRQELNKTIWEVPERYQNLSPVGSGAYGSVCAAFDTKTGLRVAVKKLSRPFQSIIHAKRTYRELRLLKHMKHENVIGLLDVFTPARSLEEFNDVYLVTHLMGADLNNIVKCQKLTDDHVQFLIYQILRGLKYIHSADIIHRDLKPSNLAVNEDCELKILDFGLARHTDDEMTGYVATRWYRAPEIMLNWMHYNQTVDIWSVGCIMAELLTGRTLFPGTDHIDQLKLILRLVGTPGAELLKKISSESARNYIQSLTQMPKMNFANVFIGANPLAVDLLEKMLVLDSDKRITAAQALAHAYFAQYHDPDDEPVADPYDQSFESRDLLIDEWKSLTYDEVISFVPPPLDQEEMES

T2 sequence (Q04912 25-1400): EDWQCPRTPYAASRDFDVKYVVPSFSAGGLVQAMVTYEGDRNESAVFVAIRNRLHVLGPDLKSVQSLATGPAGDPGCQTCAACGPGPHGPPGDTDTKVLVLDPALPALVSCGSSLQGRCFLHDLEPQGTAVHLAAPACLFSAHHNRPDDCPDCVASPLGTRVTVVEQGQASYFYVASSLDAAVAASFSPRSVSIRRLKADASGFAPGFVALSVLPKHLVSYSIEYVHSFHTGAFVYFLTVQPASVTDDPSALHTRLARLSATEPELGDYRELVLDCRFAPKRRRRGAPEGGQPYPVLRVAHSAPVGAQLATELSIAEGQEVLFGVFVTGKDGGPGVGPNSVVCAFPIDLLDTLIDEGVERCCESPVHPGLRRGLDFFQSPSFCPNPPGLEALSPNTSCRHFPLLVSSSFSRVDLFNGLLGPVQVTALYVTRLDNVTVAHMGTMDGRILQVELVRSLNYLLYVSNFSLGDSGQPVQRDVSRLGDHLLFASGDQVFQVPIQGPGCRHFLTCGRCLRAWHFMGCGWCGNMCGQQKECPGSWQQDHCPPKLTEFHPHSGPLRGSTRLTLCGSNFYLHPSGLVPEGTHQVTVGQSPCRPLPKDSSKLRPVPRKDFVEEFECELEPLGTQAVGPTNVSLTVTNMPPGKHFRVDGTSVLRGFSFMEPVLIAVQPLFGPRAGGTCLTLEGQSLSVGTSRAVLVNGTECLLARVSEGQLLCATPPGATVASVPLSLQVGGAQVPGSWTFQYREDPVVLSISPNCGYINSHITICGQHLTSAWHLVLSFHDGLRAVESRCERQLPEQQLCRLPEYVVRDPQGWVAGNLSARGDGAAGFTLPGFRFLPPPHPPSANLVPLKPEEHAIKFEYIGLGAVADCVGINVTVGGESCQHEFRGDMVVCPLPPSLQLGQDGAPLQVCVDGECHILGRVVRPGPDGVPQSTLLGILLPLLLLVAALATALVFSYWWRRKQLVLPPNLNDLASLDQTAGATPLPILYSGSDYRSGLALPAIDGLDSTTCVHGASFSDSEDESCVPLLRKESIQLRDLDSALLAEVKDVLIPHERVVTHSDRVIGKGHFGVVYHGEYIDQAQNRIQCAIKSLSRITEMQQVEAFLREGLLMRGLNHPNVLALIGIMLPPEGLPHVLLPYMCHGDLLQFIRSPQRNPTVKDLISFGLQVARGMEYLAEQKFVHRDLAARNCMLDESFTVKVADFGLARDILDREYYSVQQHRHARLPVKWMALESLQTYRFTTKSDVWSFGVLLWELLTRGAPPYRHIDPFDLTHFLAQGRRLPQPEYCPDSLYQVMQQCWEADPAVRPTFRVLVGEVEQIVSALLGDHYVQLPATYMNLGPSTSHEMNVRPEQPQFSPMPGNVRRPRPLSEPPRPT
T8 sequence (Q14289 whole entry): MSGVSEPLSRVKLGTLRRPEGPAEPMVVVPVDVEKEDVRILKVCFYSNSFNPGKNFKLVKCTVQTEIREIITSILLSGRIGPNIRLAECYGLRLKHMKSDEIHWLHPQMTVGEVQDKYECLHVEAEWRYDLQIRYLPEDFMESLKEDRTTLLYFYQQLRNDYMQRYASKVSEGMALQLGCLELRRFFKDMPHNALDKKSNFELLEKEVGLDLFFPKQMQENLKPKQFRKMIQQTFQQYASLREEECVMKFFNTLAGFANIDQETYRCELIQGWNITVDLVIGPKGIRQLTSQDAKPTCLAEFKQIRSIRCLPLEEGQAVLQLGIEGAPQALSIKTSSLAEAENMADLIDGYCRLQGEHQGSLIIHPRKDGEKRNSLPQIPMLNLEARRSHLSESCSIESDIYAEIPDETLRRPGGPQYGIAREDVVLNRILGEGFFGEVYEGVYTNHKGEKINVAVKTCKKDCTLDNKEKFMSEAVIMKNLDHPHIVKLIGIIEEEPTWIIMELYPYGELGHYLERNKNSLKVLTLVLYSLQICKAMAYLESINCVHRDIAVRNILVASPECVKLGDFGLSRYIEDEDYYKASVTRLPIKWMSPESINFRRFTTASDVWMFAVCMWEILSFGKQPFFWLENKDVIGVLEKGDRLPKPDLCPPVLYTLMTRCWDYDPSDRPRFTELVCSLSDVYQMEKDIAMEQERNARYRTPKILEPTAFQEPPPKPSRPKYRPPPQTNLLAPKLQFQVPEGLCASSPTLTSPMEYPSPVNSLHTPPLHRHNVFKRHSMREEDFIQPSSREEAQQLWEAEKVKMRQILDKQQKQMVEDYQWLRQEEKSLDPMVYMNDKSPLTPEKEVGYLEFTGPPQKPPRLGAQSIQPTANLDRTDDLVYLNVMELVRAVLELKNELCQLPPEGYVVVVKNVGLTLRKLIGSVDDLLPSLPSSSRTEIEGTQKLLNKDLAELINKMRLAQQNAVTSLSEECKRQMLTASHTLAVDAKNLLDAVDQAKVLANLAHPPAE
T1 sequence (P29323 19-1055): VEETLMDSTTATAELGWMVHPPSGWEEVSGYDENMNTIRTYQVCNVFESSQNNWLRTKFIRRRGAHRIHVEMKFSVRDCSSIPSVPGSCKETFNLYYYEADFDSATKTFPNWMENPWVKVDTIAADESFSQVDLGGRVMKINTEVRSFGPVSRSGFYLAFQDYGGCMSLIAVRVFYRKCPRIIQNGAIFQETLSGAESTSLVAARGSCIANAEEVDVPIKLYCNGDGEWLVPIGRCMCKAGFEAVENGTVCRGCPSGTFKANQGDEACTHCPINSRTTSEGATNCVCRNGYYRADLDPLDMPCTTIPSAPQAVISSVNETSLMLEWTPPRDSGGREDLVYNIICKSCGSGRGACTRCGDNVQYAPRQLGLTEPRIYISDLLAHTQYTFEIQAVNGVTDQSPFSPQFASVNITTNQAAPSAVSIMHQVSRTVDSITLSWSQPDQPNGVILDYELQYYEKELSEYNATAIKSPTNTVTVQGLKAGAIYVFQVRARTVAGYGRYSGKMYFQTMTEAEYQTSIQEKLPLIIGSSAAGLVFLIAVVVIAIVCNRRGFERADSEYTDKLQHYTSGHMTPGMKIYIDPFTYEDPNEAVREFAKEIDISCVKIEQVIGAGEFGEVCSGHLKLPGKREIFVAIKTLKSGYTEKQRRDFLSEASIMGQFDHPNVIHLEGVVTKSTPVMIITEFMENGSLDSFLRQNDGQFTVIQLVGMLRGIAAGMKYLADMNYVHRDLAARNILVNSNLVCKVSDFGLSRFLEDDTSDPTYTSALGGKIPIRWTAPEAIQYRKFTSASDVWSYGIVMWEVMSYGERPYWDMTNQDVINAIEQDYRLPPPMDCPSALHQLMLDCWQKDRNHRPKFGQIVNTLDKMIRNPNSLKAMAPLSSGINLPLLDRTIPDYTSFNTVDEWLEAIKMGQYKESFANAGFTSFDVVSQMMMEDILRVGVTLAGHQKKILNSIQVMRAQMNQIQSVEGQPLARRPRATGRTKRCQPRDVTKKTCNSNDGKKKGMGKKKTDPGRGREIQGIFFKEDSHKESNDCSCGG
T6 sequence (Q00526 whole entry): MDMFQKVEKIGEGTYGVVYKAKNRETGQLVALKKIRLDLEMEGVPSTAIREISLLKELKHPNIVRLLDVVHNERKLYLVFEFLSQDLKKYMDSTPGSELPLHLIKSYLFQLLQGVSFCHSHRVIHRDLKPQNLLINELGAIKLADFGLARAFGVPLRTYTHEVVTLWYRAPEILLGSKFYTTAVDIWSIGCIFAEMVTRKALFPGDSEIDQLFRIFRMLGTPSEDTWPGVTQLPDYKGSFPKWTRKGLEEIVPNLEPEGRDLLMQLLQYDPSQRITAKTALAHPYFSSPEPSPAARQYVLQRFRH
T6 sequence (P24864 whole entry partner): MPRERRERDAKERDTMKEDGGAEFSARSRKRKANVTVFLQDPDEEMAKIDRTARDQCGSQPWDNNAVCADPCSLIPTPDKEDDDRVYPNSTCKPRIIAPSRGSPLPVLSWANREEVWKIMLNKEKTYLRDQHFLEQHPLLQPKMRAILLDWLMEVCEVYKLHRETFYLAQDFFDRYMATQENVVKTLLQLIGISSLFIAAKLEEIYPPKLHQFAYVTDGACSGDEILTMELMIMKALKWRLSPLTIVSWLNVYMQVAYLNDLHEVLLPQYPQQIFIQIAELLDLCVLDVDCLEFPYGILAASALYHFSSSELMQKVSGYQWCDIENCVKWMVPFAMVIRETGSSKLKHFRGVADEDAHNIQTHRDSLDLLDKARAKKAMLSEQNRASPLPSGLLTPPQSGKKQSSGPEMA
T3 sequence (P49840 whole entry): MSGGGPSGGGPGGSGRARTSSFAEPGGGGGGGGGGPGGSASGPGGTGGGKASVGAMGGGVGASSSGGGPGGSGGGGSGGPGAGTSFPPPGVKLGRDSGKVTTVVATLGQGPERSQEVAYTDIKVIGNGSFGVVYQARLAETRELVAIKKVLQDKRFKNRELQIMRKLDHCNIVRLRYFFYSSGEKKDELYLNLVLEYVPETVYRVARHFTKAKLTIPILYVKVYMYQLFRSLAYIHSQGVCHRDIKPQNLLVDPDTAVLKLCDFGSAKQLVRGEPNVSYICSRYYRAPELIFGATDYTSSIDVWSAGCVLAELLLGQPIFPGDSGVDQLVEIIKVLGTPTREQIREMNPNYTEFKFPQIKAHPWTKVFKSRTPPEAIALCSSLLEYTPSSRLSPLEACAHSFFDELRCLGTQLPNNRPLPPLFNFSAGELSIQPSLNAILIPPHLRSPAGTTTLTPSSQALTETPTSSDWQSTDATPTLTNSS

## Nc1nc(N)c2nc(-c3cccc(O)c3)c(-c3cccc(O)c3)nc2n1 [Compound I, 6,7-bis-(3-hydroxyphenyl)-pteridine-2,4-diamine]
Myocardial infarct; 0.1 mg/kg, delivery between 0 and 3 h post-reperfusion (FIG. 6b)
  reductions in infarct development vs. vehicle-treated controls: 58-67%
Myocardial infarct; rats, 0.3 mg/kg IV bolus 60 min into reperfusion, 24 hr, N=8
  reduction in infarct size vs. vehicle controls: 43%
Myocardial infarct; rats, 0.3 mg/kg IV bolus 60 min into reperfusion, mean±SD (±9), vehicle 62%±7
  infarct area as percentage of ischemic territory: 35%
Myocardial infarct; single 0.5 mg/kg bolus one hour post-reperfusion, 4 weeks
  improvement in fractional shortening: 24%
Myocardial infarct; single 0.5 mg/kg bolus one hour post-reperfusion, echocardiography 4 weeks, mean±SEM, vehicle 27.2±1.9
  percent left ventricular long axis fractional shortening: 33.6±2.0%
Myocardial infarct; single i.v. bolus 60 mm post-reperfusion
  reduction of infarct size: ≥ 40%
EphB2
  Percent Control, EphB2: 56%
CaMKII
  Percent Control, CaMKII (r): 90%
INK3
  Percent Control, INK3(r): 64%
Ron
  Percent Control, Ron: 71%
GSK3a
  Percent Control, GSK3a: 62%
ErbB4
  Percent Control, ErbB4: 40%
[1]; 5 mg/kg iv 30 min before, 3 hours, mean±SEM N=6, vehicle 71 ± 9
  Increase in Paw Volume vs. Controls: 27 ± 4 mm^3
[1]; 5 mg/kg pretreatment, three hours
  edema and leukocyte infiltration (histology): strongly antagonized; also recorded: blocked
[1]; n=8
  reduction of paw volume: 62%
MKK4
  Percent Control, MKK4 (m): 57%
PKCa
  Percent Control, PKCa: 90%
CDK3
  Percent Control, CDK3: 72%
PDK1
  Percent Control, PDK1: 90%
Pyk2
  Percent Control, Pyk2: 68%
SAPK2a
  Percent Control, SAPK2a: 55%

Source: patent US7691858B2, “Kinase inhibitors and methods of use thereof” (TargeGen, Inc., priority 2006, dated 2010)
